Assay results: patent publication US20130225641A1, “ANTICANCER COMPOUNDS AND PREPARATION METHODS THEREOF” (priority 2010, published 2013)

How the values were obtained:
Assay type in all cases: in vivo, nude mice (nu/nu)
[1] = Side effects in tumor transplanted nude mice; details: during treatment
Description: (§1) T-cell deficient nude mice (nu/nu) of 6 weeks old were purchased from Charles River Laboratory, and housed and treated in a sterile environment following Institutional Animal Care & Use Committee Program. 48 mice were respectively subcutaneously inoculated on ribbed belly with 5×10^6 human liver cancer cells (HepG3B), human lung caner cells (NCI-H23), and human colon cancer cells (HCT-116) suspended in 0.2 ml HBSS/matrigel (50:50, V/V). When the tumor grew to have an average diameter of 7-8 mm and a volume of about 100-200 mm^3, 24 mice were picked up, and assigned to treatment groups (16 animals/2 groups), and a control group (8 animals). The 2 treatment groups were administered with the compounds ZTP and ZTQ dissolved in 15% Captsol respectively at a dose of 30 mg/kg and 60 mg/kg, and the control group only received an excipient (15% Captsol).
(§2) The dose schedule of the test compounds in the tumor transplanted nude mice was as follows: the compounds ZTP and ZTQ dissolved in 15% Captsol were daily orally administered as a 200 μl solution containing 0.75 mg of ZTP and 1.5 mg of ZTQ for 5 days/week over 3 consecutive weeks, followed by one-week break; and the control group was only administered with 200 μl of the placebo (15% Captsol) for 3 weeks, followed by 1 week of break. The two groups of animals were housed separately, and allowed to free access to food.

[2] = test system: human colon cancer cells (HCT-116); assay: Transplantation model of human colon cancer (HCT-116) in nude mice; details: HCT-116 subcutaneous in nude mice; oral daily 5 days/week, 3 weeks; ZTP 30 mg/kg, ZTQ 60 mg/kg; lower = stronger
Description: as §1
(§3) The same number of mice of each type was assigned to the control group and the treatment groups with the compounds ZTP and ZTQ respectively.
as §2
(§4) Evaluation of antitumor effect: the tumor size was measured every 3 or 4 days. The tumor volume was calculated using the equation below: […], in which a denotes the width (the shorter diameter), and b denotes the length (the longer diameter). Relative tumor volume (RTV) of each tumor refers to the ratio of the volume at a specified time to that at the beginning of the treatment. The average RTV for each treatment group was calculated. The antitumor activity was determined by calculating the tumor growth inhibition using a formula below. […]

[3] = test system: human lung cancer cells (NCI-H23); assay: Transplantation model of human lung cancer (NCI-H23) in nude mice; details: NCI-H23 subcutaneous in nude mice; oral daily 5 days/week, 3 weeks; ZTP 30 mg/kg, ZTQ 60 mg/kg; lower = stronger
Description: as §1, §3, §2, §4

[4] = test system: human liver cancer cells (HepG3B); assay: Transplantation model of human liver cancer (HepG3B) in nude mice; details: HepG3B subcutaneous in nude mice; oral daily 5 days/week, 3 weeks; ZTP 30 mg/kg, ZTQ 60 mg/kg; lower = stronger
Description: as §1, §3, §2, §4

Compound	side effect, including the change in body weight [1]	TGI (T/C×100) [2] [%]	TGI (T/C×100) [3] [%]	TGI (T/C×100) [4] [%]
CNC(=O)c1cc(Oc2ccc(NC(=O)Nc3ccc(Cl)c(C(F)(F)F)c3)cc2)ccn1 [Sorafenib, reference compound]	relatively large side effect	33	11.25	14
N-[4-chloro-3-(trifluoromethyl)phenyl]-[4-(N-methyl-formamide)(4-pyridyloxy)phenyl]-thiourea [ZTP]	no obvious side effect			
